Assay results as given in patent publication US20140038989A1, “TETRAHYDROPYRAZOLO [1,5-A] PYRIMIDINE AS ANTI-TUBERCULOSIS COMPOUNDS” (Glaxo Group Limited, priority 2011, published 2014).
≈ marks a conversion by molar mass, not a printed value.

Tested on: Mycobacterium tuberculosis H37Rv
Experiment: Mycobacterium tuberculosis H37Rv Inhibition Assay (Whole Cell Assay)
Format: cell-based
Conditions: ATCC 25618 / H37Rv, H37Rv strain (ATCC25618), Middlebrook 7H9, six days at 37° C., resazurin fluorescence after 48 hours

SMILES	MIC
CCc1ccc([C@H]2C[C@@H](C(F)(F)F)n3ncc(C(=O)NCc4ccc(F)c(C)n4)c3N2)cc1 (relative stereo) [Example 77, Cis-5-(4-ethylphenyl)-N-((5-fluoro-6-methylpyridin-2-yl)methyl)-7-(trifluoromethyl)-4,5,6,7-tetrahydropyrazolo[1,5-a]pyrimidine-3-carboxamide]	1 to 2 µM (≈ 0.461 to 0.923 µg/mL)
CCc1ccc([C@H]2C[C@@H](C(F)(F)F)n3ncc(C(=O)NCc4ccco4)c3N2)cc1 (single isomer, unassigned) [Example 7a]	≤ 1 µM
CCc1ccc([C@H]2C[C@@H](C(F)(F)F)n3ncc(C(=O)NCc4ccc(N(C)C)cc4)c3N2)cc1 (relative stereo) [Example 11, Cis-N-(4-(dimethylamino)benzyl)-5-(4-ethylphenyl)-7-(trifluoromethyl)-4,5,6,7-tetrahydropyrazolo[1,5-a]pyrimidine-3-carboxamide]	1 to 2 µM (≈ 0.472 to 0.943 µg/mL)
CCc1ccc([C@H]2C[C@@H](C(F)(F)F)n3ncc(C(=O)NCc4ccc(F)cn4)c3N2)cc1 (relative stereo) [Example 69, Cis-5-(4-ethylphenyl)-N-((5-fluoropyridin-2-yl)methyl)-7-(trifluoromethyl)-4,5,6,7-tetrahydropyrazolo[1,5-a]pyrimidine-3-carboxamide]	≤ 1 µM
COc1ccc(CNC(=O)c2cnn3c2NC(c2ccc(C)cc2)CC3C(F)(F)F)cc1 (centres unmarked) [Example 39, N-(4-methoxybenzyl)-5-(p-tolyl)-7-(trifluoromethyl)-4,5,6,7-tetrahydropyrazolo[1,5-a]pyrimidine-3-carboxamide]	≤ 1 µM
CCc1ccc([C@H]2C[C@@H](C(F)(F)F)n3ncc(C(=O)NCc4cccc(C(F)(F)F)c4)c3N2)cc1 (relative stereo) [Example 14, Cis-5-(4-ethylphenyl)-7-(trifluoromethyl)-N-{[3-(trifluoromethyl)phenyl]methyl}-4,5,6,7-tetrahydropyrazolo[1,5-a]pyrimidine-3-carboxamide]	1 to 2 µM (≈ 0.496 to 0.993 µg/mL)
CCc1ccc([C@H]2C[C@@H](C(F)(F)F)n3ncc(C(=O)NCc4cc(F)cc(F)c4)c3N2)cc1 (relative stereo) [Example 17, Cis-N-[(3,5-difluorophenyl)methyl]-5-(4-ethylphenyl)-7-(trifluoromethyl)-4,5,6,7-tetrahydropyrazolo[1,5-a]pyrimidine-3-carboxamide]	≤ 1 µM
CCc1ccc([C@H]2C[C@@H](C(F)(F)F)n3ncc(C(=O)NCc4ccc5c(c4)OCCO5)c3N2)cc1 (relative stereo) [Example 18, Cis-N-(2,3-dihydro-1,4-benzodioxin-6-ylmethyl)-5-(4-ethylphenyl)-7-(trifluoromethyl)-4,5,6,7-tetrahydropyrazolo[1,5-a]pyrimidine-3-carboxamide]	1 to 2 µM (≈ 0.486 to 0.973 µg/mL)
CCc1ccc([C@H]2C[C@@H](C(F)(F)F)n3ncc(C(=O)NCc4ccc(F)cc4F)c3N2)cc1 (relative stereo) [Example 59, Cis-N-[(2,4-difluorophenyl)methyl]-5-(4-ethylphenyl)-7-(trifluoromethyl)-4,5,6,7-tetrahydropyrazolo[1,5-a]pyrimidine-3-carboxamide]	≤ 1 µM
CCc1ccc([C@H]2C[C@@H](C(F)(F)F)n3ncc(C(=O)NCc4ccc(OC)cc4)c3N2)cc1 (single isomer, unassigned) [Example 1a]	≤ 1 µM
CCc1ccc([C@H]2C[C@@H](C(F)(F)F)n3ncc(C(=O)NCc4ccc(F)c(F)c4)c3N2)cc1 (relative stereo) [Example 16, Cis-N-[(3,4-difluorophenyl)methyl]-5-(4-ethylphenyl)-7-(trifluoromethyl)-4,5,6,7-tetrahydropyrazolo[1,5-a]pyrimidine-3-carboxamide]	≤ 1 µM
CCc1ccc([C@H]2C[C@@H](C(F)(F)F)n3ncc(C(=O)NCc4ccc(C)c(Cl)c4)c3N2)cc1 (relative stereo) [Example 9, Cis-N-(3-chloro-4-methylbenzyl)-5-(4-ethylphenyl)-7-(trifluoromethyl)-4,5,6,7-tetrahydropyrazolo[1,5-a]pyrimidine-3-carboxamide]	≤ 1 µM
COc1ccc(C2CC(C(F)(F)F)n3ncc(C(=O)NCc4ccc5c(c4)OCO5)c3N2)cc1 (centres unmarked) [Example 41, N-(benzo[d][1,3]dioxol-5-ylmethyl)-5-(4-methoxyphenyl)-7-(trifluoromethyl)-4,5,6,7-tetrahydropyrazolo[1,5-a]pyrimidine-3-carboxamide]	≤ 1 µM
CCc1ccc([C@H]2C[C@@H](C(F)(F)F)n3ncc(C(=O)NCc4cccc(C)c4)c3N2)cc1 (relative stereo) [Example 3, Cis-5-(4-ethylphenyl)-N-(3-methylbenzyl)-7-(trifluoromethyl)-4,5,6,7-tetrahydropyrazolo[1,5-a]pyrimidine-3-carboxamide]	≤ 1 µM
CCc1ccc([C@H]2C[C@@H](C(F)(F)F)n3ncc(C(=O)NCc4ccc(OC)nc4)c3N2)cc1 (relative stereo) [Example 74, Cis5-(4-ethylphenyl)-N-((6-methoxypyridin-3-yl)methyl)-7-(trifluoromethyl)-4,5,6,7-tetrahydropyrazolo[1,5-a]pyrimidine-3-carboxamide]	1 to 2 µM (≈ 0.459 to 0.919 µg/mL)
CCc1ccc(C2CC(C(F)(F)F)n3ncc(C(=O)NCc4cccs4)c3N2)cc1 (centres unmarked) [Example 40, 5-(4-ethylphenyl)-N-(thiophen-2-ylmethyl)-7-(trifluoromethyl)-4,5,6,7-tetrahydropyrazolo[1,5-a]pyrimidine-3-carboxamide]	≤ 1 µM
CCc1ccc([C@H]2C[C@@H](C(F)(F)F)n3ncc(C(=O)NCc4ccc(C)nc4)c3N2)cc1 (relative stereo) [Example 19, Cis-5-(4-ethylphenyl)-N-((6-methylpyridin-3-yl)methyl)-7-(trifluoromethyl)-4,5,6,7-tetrahydropyrazolo[1,5-a]pyrimidine-3-carboxamide]	1 to 2 µM (≈ 0.443 to 0.887 µg/mL)
CCc1ccc([C@H]2C[C@@H](C(F)(F)F)n3ncc(C(=O)NCc4ccc(F)c(C)c4)c3N2)cc1 (relative stereo) [Example 63, Cis-5-(4-ethylphenyl)-N-(4-fluoro-3-methylbenzyl)-7-(trifluoromethyl)-4,5,6,7-tetrahydropyrazolo[1,5-a]pyrimidine-3-carboxamide]	≤ 1 µM
CCc1ccc([C@H]2C[C@@H](C(F)(F)F)n3ncc(C(=O)NCc4ccc(F)cc4)c3N2)cc1 (relative stereo) [Example 58, Cis-5-(4-ethylphenyl)-N-(4-fluorobenzyl)-7-(trifluoromethyl)-4,5,6,7-tetrahydropyrazolo[1,5-a]pyrimidine-3-carboxamide]	≤ 1 µM
CCc1ccc([C@H]2C[C@@H](C(F)(F)F)n3ncc(C(=O)NCc4ccoc4)c3N2)cc1 (relative stereo) [Example 12, Cis-5-(4-ethylphenyl)-N-(furan-3-ylmethyl)-7-(trifluoromethyl)-4,5,6,7-tetrahydropyrazolo[1,5-a]pyrimidine-3-carboxamide]	≤ 1 µM
CCc1ccc([C@H]2C[C@@H](C(F)(F)F)n3ncc(C(=O)NCc4ccccc4C(F)(F)F)c3N2)cc1 (relative stereo) [Example 44, Cis-5-(4-ethylphenyl)-7-(trifluoromethyl)-N-(2-(trifluoromethyl)benzyl)-4,5,6,7-tetrahydropyrazolo[1,5-a]pyrimidine-3-carboxamide]	> 2 µM
Cc1ccc(C2CC(C(F)(F)F)n3ncc(C(=O)NCc4ccccc4Cl)c3N2)cc1 (centres unmarked) [Example 52, N-(2-chlorobenzyl)-5-(p-tolyl)-7-(trifluoromethyl)-4,5,6,7-tetrahydropyrazolo[1,5-a]pyrimidine-3-carboxamide]	> 2 µM
CCc1ccc([C@H]2C[C@@H](C(F)(F)F)n3ncc(C(=O)NCc4cccc(OC)c4)c3N2)cc1 (relative stereo) [Example 8, Cis-5-(4-ethylphenyl)-N-{[3-(methyloxy)phenyl]methyl}-7-(trifluoromethyl)-4,5,6,7-tetrahydropyrazolo[1,5-a]pyrimidine-3-carboxamide]	≤ 1 µM
CCc1ccc([C@H]2C[C@@H](C(F)F)n3ncc(C(=O)NCc4ccc(OC)cc4)c3N2)cc1 (relative stereo) [Example 32, Cis-7-(difluoromethyl)-5-(4-ethylphenyl)-N-(4-methoxybenzyl)-4,5,6,7-tetrahydropyrazolo[1,5-a]pyrimidine-3-carboxamide]	≤ 1 µM
CCc1ccc([C@H]2C[C@@H](C(F)F)n3ncc(C(=O)NCc4ccc(C)cc4)c3N2)cc1 (relative stereo) [Example 33, Cis-7-(difluoromethyl)-5-(4-ethylphenyl)-N-(4-methylbenzyl)-4,5,6,7-tetrahydropyrazolo[1,5-a]pyrimidine-3-carboxamide]	≤ 1 µM
CCc1ccc([C@H]2C[C@@H](C(F)(F)F)n3ncc(C(=O)NCc4ccc(C)n4C)c3N2)cc1 (relative stereo) [Example 72, Cis-N-((1,5-dimethyl-1H-pyrrol-2-yl)methyl)-5-(4-ethylphenyl)-7-(trifluoromethyl)-4,5,6,7-tetrahydropyrazolo[1,5-a]pyrimidine-3-carboxamide]	≤ 1 µM
CCc1ccc([C@H]2C[C@@H](C(F)(F)F)n3ncc(C(=O)NCc4ncc(F)cc4F)c3N2)cc1 [Example 101, (5R,7S)—N-((3,5-difluoropyridin-2-yl)methyl)-5-(4-ethylphenyl)-7-(trifluoromethyl)-4,5,6,7-tetrahydropyrazolo[1,5-a]pyrimidine-3-carboxamide]	≤ 1 µM
Cc1ccc(CNC(=O)c2cnn3c2NC(c2ccc(C)cc2)CC3C(F)F)cc1 (centres unmarked) [Example 51, 7-(difluoromethyl)-N-(4-methylbenzyl)-5-(p-tolyl)-4,5,6,7-tetrahydropyrazolo[1,5-a]pyrimidine-3-carboxamide]	> 2 µM
CCc1ccc([C@H]2C[C@@H](C(F)(F)F)n3ncc(C(=O)NCc4ncc(F)cc4F)c3N2)cc1 (relative stereo) [Example 70, Cis N-((3,5-difluoropyridin-2-yl)methyl)-5-(4-ethylphenyl)-7-(trifluoromethyl)-4,5,6,7-tetrahydropyrazolo[1,5-a]pyrimidine-3-carboxamide]	≤ 1 µM
